Consider eight molecules from article PMC8842601, “Antimicrobial, Cytotoxic and Oxidative Stress Inhibitory Activities of Terpenoids and Flavonols from Senegalia nigrescens (Oliv.) P.J.H. Hurter” (Iranian Journal of Pharmaceutical Research : IJPR, 2021).

In test [1] the test system is MDA-MB-231 cells. Put plainly: MTT cytotoxicity assay on breast cancer cells. The format is cell-based, human. The following applies: for IC50: Homo sapiens, MDA-MB-231 breast cancer cells, MTT, 24 h; for selectivity index (SI): toxicity on RAW264.7 compared to MDA-MB-231 cancer cells. The method, then: (§1) Cytotoxicity and antiproliferative effects of compounds were evaluated against Murine macrophage cells (RAW264.7) and breast adenocarcinoma cancer cells (MDA-MB-231) using the spectrophotometric, 3-(4,5-dimethylthiazol-2-yl)-2,5-diphenyltetrazolium bromide (MTT) assay ([16]). Cells (5 × 10^4 cell/well) were seeded in Dulbecco’s modified eagle’s medium (DMEM; Gibco) in a 96 well plate for 24 h incubation at 37 °C in 5% CO2 and treated with compounds (2.5 - 200 µg/mL) and positive control, Doxorubicin (2.5 - 200 µM). Untreated cells and 5% DMSO treated cells were assayed as negative and solvent control, respectively. After 24 h incubation, 20 µL MTT dye (5 mg/mL) was pipetted in all wells including wells with untreated cells, and incubated for 4 h. The medium was aspirated and 100 µL of DMSO was added to all the wells to dissolve the formazan crystals and the optical density (OD) was measured after an hour at 570 nm using a microplate reader.
(Tetrazolium dyes change colour on reduction, which living cells bring about.)

Test [2] has as its system RAW264.7 cells. Nature of the test: LPS-induced intracellular ROS production (H2DCF-DA assay). The test is classed as cell-based, murine. Particulars: RAW264.7, compound 10 µg/mL, LPS 10 µg/mL; for ROS production level: relative to LPS-treated cells. How it is done:
Lipopolysaccharide (LPS)-induced reactive oxygen species (ROS) production was probed using an oxidative cell-permeant fluorescent dye 2',7'-dichlorodihydrofluorescein diacetate (H2DCF-DA) ([17]). RAW264.7 cells (5 × 10^4 cells/well) were seeded overnight into a 96 well plate and treated with compounds (10 µg/mL) at concentrations ≤ IC50 values and LPS (10 µg/mL) for 24 h at 37 °C in 5% CO2 rich incubator, then 10 μM H2DCF-DA dye (100 µL) was added for an hour. The fluorescence intensity which correlates to ROS production was measured on a microplate reader at 485 and 535 nm excitation and emission, respectively. Data obtained were subjected to analysis using GraphPad Prism (version 8.2).
Inflammation is a physiological response stimulated by the organism as a way of overcoming pathogenic events employed as a defense mechanism. However, an unregulated inflammatory response can lead to several diseases, including cancer. ROS-inducing approaches rely on the fact that increasing the ROS level over the cytotoxic threshold can result in cellular impairment, damaging DNA, RNA, proteins and lipids in normal cells, even though macrophage cells cannot phagocytize cancerous cells, but release a reasonable amount of pro-inflammatory cytokines that quench cancer cells yet are cytoprotective to normal cells ([6]). In this regard, it was considered that the compounds tested would be able to reduce the production of LPS-induced ROS in normal macrophages. Determination of ROS production in RAW264.7 cells was conducted using the non-toxic IC50 value of 10 µg/mL for all compounds (Table 2). Cells were pre-treated with compounds for 20 h and LPS was added in all treated cells except the untreated control cells. Thereafter H2DCFDA was introduced to the cells. […]
Figure 3 Effects of S. nigrescens compounds 1-6 on LPS-induced ROS production by RAW264.7 cells measured by a micro plate reader (Thermo Scientific Varioskan Flash). […] Experiments were conducted in triplicate and data is expressed as the mean ± SD with p-values calculated against control ^**p < 0.01; ^***p < 0.001

In test [3] the test system is RAW264.7 cells. Put plainly: MTT cytotoxicity assay on normal macrophage cells. The format is cell-based. Particulars: Mus musculus, RAW264.7 normal murine macrophage cells, 24 h. The method, then:
as §1

In test [4] the test system is Escherichia coli ATCC 25922. Nature of the test: Microplate serial dilution MIC assay (resazurin). The format is cell-based. Particulars: ATCC25922, E. coli ATCC 25922, 24 h at 37 °C, tested 7.8-1000 µg/mL. How it is done: (§2) Three microorganisms used in this study, two bacterial strains (Escherichia coli ATCC 25922 - Gram-negative and Staphylococcus aureus ATCC 25923 - Gram-positive) and a fungus (Candida albicans ATCC 10231) were procured from Anatech Instruments (Pty) Ltd, Randburg, Gauteng, South Africa (Anatech, Kwik-stick®). Escherichia coli and S. aureus were cultured in nutrient agar while the fungus (C. albicans ATCC 10231) was cultured on sabouraud dextrose agar (SDA) and incubated for 24 h under aerobic conditions at 37 °C. Pure colonies of microorganisms from the agar were transferred onto nutrient broth and sabouraud dextrose broth (SDB) to obtain an overnight culture. Compounds 1 – 6 were weighed and dissolved in 5% Dimethyl sulfoxide (DMSO) to a final working stock solution of 4 mg/mL. Standard antibiotics Ciprofloxacin and Amphotericin-B were also dissolved in 5% DMSO. The samples were kept at 20 °C in the dark until used. Antimicrobial activity was done using the microplate serial dilution method by Eloff, ([14]). The minimum inhibitory concentration (MIC) was defined as the lowest concentration of the compound capable of inhibiting microbial growth. The microorganisms were adjusted according to 0.5 McFarland standard solution to a final concentration of 1.5 × 10^4 CFU/mL in sterile 0.85% sodium chloride (NaCl) solution. Compounds were tested at the concentration range of 7.8-1000 µg/mL in 96 well plates and incubated with microorganisms for 24 h at 37 °C. Ciprofloxacin and Amphotericin-B were used as positive controls for bacterial and fungal assays, respectively. In addition, sterile distilled 5% DMSO was used as a negative control. A staining reagent, 50 µL Resazurin sodium salt (0.2 mg/mL) was used as an indicator of microbial growth and the MIC was visually determined ([15]).
Background: Alamar Blue is a resazurin reagent that responds to reducing activity.

The subject of test [5] is Staphylococcus aureus ATCC 25923. Put plainly: Microplate serial dilution MIC assay (resazurin). The test is classed as cell-based. The following applies: ATCC25923, S. aureus ATCC 25923, 24 h at 37 °C, tested 7.8-1000 µg/mL. The method, then: as §2
Test [6] relates to Candida albicans ATCC 10231. Nature of the test: Microplate serial dilution MIC assay (resazurin). The format is cell-based. The following applies: ATCC10231, C. albicans ATCC 10231, 24 h at 37 °C, tested 7.8-1000 µg/mL. The method, then: as §2
The test system of test [7] is Escherichia coli, Staphylococcus aureus and Candida albicans. Nature of the test: Microplate serial dilution MIC assay, stated across the three strains. The format is cell-based. Particulars: across the three strains (E. coli, S. aureus, C. albicans). The method, then:
as §2, with “The microorganisms were adjusted according to 0.5 McFarland standard solution to a final concentration of 1.5 × 10^4 CFU/mL in sterile 0.85% sodium chloride (NaCl) solution. Compounds were tested at the concentration range of 7.8-1000 µg/mL in 96 well plates and incubated with microorganisms for 24 h at 37 °C. Ciprofloxacin and Amphotericin-B were used as positive controls for bacterial and fungal assays, respectively. In addition, sterile distilled 5% DMSO was used as a negative control.” left out

For test [8], the system named is LPS-induced ROS. More on the design: method as in PMID 18254591, PMID 30302324. Particulars: read-out: IC50, inhibition of LPS-induced ROS; cited from earlier work.
The subject of test [9] is LPS-induced RNS. More on the design: method as in PMID 18254591, PMID 30302324. Particulars: read-out: IC50, inhibition of LPS-induced RNS; cited from earlier work.
Test [10] concerns S. aureus. Details: method as in PMID 35914415. Particulars: reducing cell surface hydrophobicity and membrane permeability; cited from earlier work.

Values after ≈ are worked out from the molar mass of the structure shown. Bounds are passed on as bounds.

As for `O=c1c(O)c(-c2ccc(O)c(O)c2)oc2cc(O)cc(O)c12` [Compound 5, quercetin], the 50% inhibitory concentration (IC50) (usually the concentration that inhibits the measured activity by half) worked out at 20.6 µg/mL (≈ 68.2 µM) in test [1] and 22.6 µg/mL (≈ 74.8 µM) in test [3]. In [1], the “selectivity index (SI)” value is reported as 1.09. The ROS production level result in test [2] is “below 50%”. Besides, the minimal inhibitory concentration (MIC) (commonly the lowest concentration found to suppress growth) in test [4] worked out at 62.5 µg/mL (≈ 207 µM); in [5], 31.2 µg/mL (≈ 103 µM); in [6], 31.2 µg/mL (≈ 103 µM).

As to `COc1c(-c2ccc(O)c(O)c2)oc2cc(O)cc(O)c2c1=O` [Compound 6, quercetin-3-O-methyl ether], the IC50 in test [1] was found to be 14 µg/mL (≈ 44.4 µM); in test [3] it was 28.7 µg/mL (≈ 90.8 µM). Moreover, the “selectivity index (SI)” value in [1] worked out at 2.04. Also, in test [2], the ROS production level entry is listed as “below 50%”. Also, the MIC in test [4] is 62.5 µg/mL (≈ 198 µM); in test [5] it was 31.2 µg/mL (≈ 98.8 µM); in test [6], 31.2 µg/mL (≈ 98.8 µM).

`COc1cccc2c1C(=O)c1c(O)c3c(c(O)c1C2=O)C[C@@](O)(C(=O)CO)C[C@@H]3O[C@H]1C[C@H](N)[C@H](O)[C@H](C)O1` [doxorubicin, reference compound]: the figures for the IC50 in [1] and in test [3] were 9.35 µg/mL (≈ 17.2 µM) and 10.6 µg/mL (≈ 19.5 µM), respectively. The “selectivity index (SI)” value in test [1] is recorded as 1.13.

For `C=C(C=O)C1CCC2(C)CCC3(C)C(CCC4C5(C)CCC(O)C(C)(C)C5CCC43C)C12` (stereo not drawn) [Compound 1, 3β-hydroxy-20(29)-en-lupan-30-al], the IC50 was found to be 26.6 µg/mL (≈ 60.5 µM) in test [1] and 16.9 µg/mL (≈ 38.3 µM) in test [3]. This molecule had an MIC in [7] of at least 250 µg/mL.

With `O=c1c(O)c(-c2ccc(O)c(O)c2)oc2c(O)c(O)ccc12` [Compound 4, melanoxetin], the IC50 in [1] was 22.2 µg/mL (≈ 73.4 µM); in test [8], 12.5 µM; in test [9], 6.9 µM; in test [3], 15.8 µg/mL (≈ 52.3 µM). The “reduction of ROS” value in [2] was “approximately 40%”.

Consider `C=C(CO)C1CCC2(C)CCC3(C)C(CCC4C5(C)CCC(O)C(C)(C)C5CCC43C)C12` (stereo not drawn) [Compound 2, 30-hydroxylup-20(29)-en-3β-ol], for which the IC50 in [1] amounted to 11.9 µg/mL (≈ 26.8 µM); in [3], 22.8 µg/mL (≈ 51.5 µM). In test [1], the “selectivity index (SI)” value is 1.92. In test [7], the MIC was at least 250 µg/mL.

For the molecule `CC1=CC23CCC4C(C)(CO)CCCC4(CO)C2CCC1C3` (stereo not drawn) [Compound 3, ent-kaur-15-en-18,20-diol], the values for the concentration for half-maximal inhibition (IC50) in [1] and in [3] were 12.6 µg/mL (≈ 41.4 µM) and 18.5 µg/mL (≈ 60.8 µM), respectively. Further, in test [1], the “selectivity index (SI)” value turned out to be 1.46. The MIC in test [4] is 250 µg/mL (≈ 821 µM); in [5], 125 µg/mL (≈ 411 µM); in [6] it was 62.5 µg/mL (≈ 205 µM).

As for `O=c1cc(-c2ccc(O)cc2)oc2c([C@@H]3O[C@H](CO)[C@@H](O)[C@H](O)[C@H]3O)c(O)cc(O)c12` [Apigenin-8-C-glucoside], the MIC in test [10] is 126 µg/mL (≈ 291 µM).
